Measurements reported in article PMC11992225, “Antibacterial compounds against non-growing and intracellular bacteria” (npj Antimicrobials and Resistance, 2025).
Where two headings read alike, the source gives them in different places.

Assays:
[1] = system: non-growing S. aureus DSM2569; experiment: Dilution-regrowth assay (OD600, start-growth-time) on stationary-phase S. aureus; assay type: cell-based, Staphylococcus aureus; conditions: S. aureus; for Regrowth, OD600 at 6h or 8h after dilution into drug-free medium: average; for EC50: regrowth delay of non-growing bacteria, 1:4 CA-MHB pH 7.4, 24 h treatment, OD600 8 h after dilution; for Regrowth: OD600 after dilution into drug-free medium (mean): OD600 at 6h or 8h; for OD600 at 8hr, Mean: after dilution into drug-free medium
Experimental: The cultures were grown and treated for 24 h in 1:4 CA-MHB (pH 7.4).
This approach allowed us to capture the time when cultures reached a threshold optical density (start-growth-time, SGT[15]).
The cultures were incubated for 24 h in non-baffled Erlenmeyer flasks at 37 °C with shaking at 200 rpm.
For P. aeruginosa and S. aureus, dose–response analysis was conducted in 96-well plates with a 200 μl assay volume, following the procedure used for screening assay validation experiments. […] Stock solutions were prepared and stored according to the manufacturers’ instructions, then diluted in 10% DMSO before use. Cultures were incubated for 24 h in 1:4 diluted CA-MHB medium under the same conditions used for UPEC cultivation. In preliminary experiments, each compound was tested at a concentration of 20 μM in the dilution-regrowth assay with 4 technical replicates. Regrowth was monitored using a microplate reader at 37 °C with continuous shaking, and OD600 was recorded every 20 min. The time at which OD600 exceeded the threshold of 0.12 was recorded as the Start_Growth-Time.
Statistical significance of the drug effects was assessed using a one-way ANOVA followed by Dunnett’s test, comparing each treatment to the drug-free control. Statistical significance of the differences in chemical characteristics between the hit compounds and the Prestwick library was assessed using a Mann–Whitney test. Statistical significance was set at P ≤ 0.05. A five-parameter logistic equation was used for asymmetric sigmoidal curve fitting and for EC50 and IC50 determination. The Venn diagram in Fig. 1F was prepared using BioVenn web application. Characteristics of the chemical and physical properties of Prestwick library compounds were obtained from Supplementary Table S1 from reference. Characteristics of the hit compounds not included in the Prestwick library were retrieved from the PubChem database.

[2] = system: SOS response in UPEC CFT073; experiment: SOS response induction analysis, pAED2 cda' promoter mScarlet-I reporter; assay type: cell-based, Escherichia coli; conditions: for induction of the SOS response in growing UPEC cultures: 6 h, MMC, BLE, ECH in 1:4 CA-MHB pH 7.4, PLI, SAT, EVO in LPM pH 5.5
Experimental: Since we aimed to test SOS induction in non-growing cultures, it was essential to use a reporter with no leaky expression in the stationary phase. Therefore, we constructed the plasmid pAED2, based on the low copy-number plasmid pSC101, which contains the cda’ promoter in front of the mScarlet-I-encoding reporter gene.
Overnight cultures of CFT073 harboring a reporter plasmid were grown in 3 ml of LB supplemented with 100 µg/ml carbenicillin (Cb), then diluted 1:100 into the medium used for testing. For validation of the pANO1::cda’ reporter, an overnight culture was diluted into CA-MHB (supplemented with 40 mM HEPES, pH 7.4, and 100 µg/ml Cb) and grown to an OD600 ≈ 0.5 at 37 °C with shaking at 200 rpm in an Erlenmeyer flask. […] Empty wells were filled with water. […] The experiment was performed in triplicate.
For analysis of the SOS induction by anti-cancer compounds, the overnight cultures were diluted either into 1:4 diluted CA-MHB (40 mM HEPES, pH 7.4) or LPM (30 mM MES, pH 5.5) that were supplemented with 100 µg/ml Cb. For analysis of the effect on growing bacteria, the cultures were incubated at 37 °C with shaking at 200 rpm in Erlenmeyer flasks for 90 min, to an OD600 ≈ 0.5. Then, 180 μl aliquots were transferred to 96-well plates, and 20 μl of the 200 μM drug solution was added to achieve a final concentration of 20 μM. The plates were incubated in a microplate reader (BioTek Synergy H1) at 37 °C with continuous shaking for 6 h. OD600 and mScarlet fluorescence were recorded throughout the incubation.
For analysis of the effect of anti-cancer compounds on stationary phase- and regrowing bacteria, the cultures were incubated for 24 h at 37 °C with shaking at 200 rpm in Erlenmeyer flasks. […] The samples were incubated for 24 h at 37 °C in standing 1.5 ml tubes. Before and after the drug treatment, 25 μl aliquots were taken and diluted by mixing with 175 μl PBS. OD600 and mScarlet fluorescence were recorded using a microplate reader (BioTek Synergy H1).
After the treatment, stationary-phase bacteria were harvested by centrifugation at 5000 × g for 5 min at 20 °C, washed twice with PBS, and resuspended in 475 μl PBS.

[3] = Staphylococcus aureus, DSM2569, read-out: EC50

CCCCCCCCN=c1ccn(CCCCCCCCCCn2ccc(=NCCCCCCCC)cc2)cc1 [Octenidine]
Regrowth, OD600 at 6h or 8h after dilution into drug-free medium ([1]; concentration 0.1): 0.879
Regrowth, OD600 at 6h or 8h after dilution into drug-free medium ([1]; concentration 0.5): 0.554
Regrowth, OD600 at 6h or 8h after dilution into drug-free medium ([1]; concentration 2.5): 0.478
Regrowth, OD600 at 6h or 8h after dilution into drug-free medium (average) ([1]; drug concentration 10): 0.086
EC50 [1, 3]: 3300 nM

CC1COc2c(N3CCN(C)CC3)c(F)cc3c(=O)c(C(=O)O)cn1c23 (stereo not shown) [Ofloxacin]
Regrowth, OD600 at 6h or 8h after dilution into drug-free medium ([1]; concentration 0.1): 0.643
Regrowth, OD600 at 6h or 8h after dilution into drug-free medium ([1]; concentration 0.5): 0.590
Regrowth, OD600 at 6h or 8h after dilution into drug-free medium ([1]; concentration 2.5): 0.519
Regrowth, OD600 at 6h or 8h after dilution into drug-free medium ([1]; concentration 10): 0.417
EC50 [1, 3]: 14300 nM
SOS induction during recovery of treated non-growing UPEC ([2]; 10 μM, 24 h, then washed and diluted in CA-MHB, single control experiment): SOS induction during recovery

CO[C@H]1/C=C/O[C@@]2(C)Oc3c(C)c(O)c4c(c3C2=O)C2=NC3(CCN(CC(C)C)CC3)NC2=C(NC(=O)/C(C)=C\C=C\[C@H](C)[C@H](O)[C@@H](C)[C@@H](O)[C@@H](C)[C@H](OC(C)=O)[C@@H]1C)C4=O [Rifabutin]
Regrowth: OD600 after dilution into drug-free medium (mean) ([1]; concentration 0.1): 0.129
Regrowth: OD600 after dilution into drug-free medium (mean) ([1]; concentration 0.5): 0.135
Regrowth: OD600 after dilution into drug-free medium (mean) ([1]; concentration 2.5): 0.130
Regrowth: OD600 after dilution into drug-free medium (mean) ([1]; concentration 10): 0.096
EC50 [1, 3]: 32 nM

CO[C@H]1/C=C/O[C@@]2(C)Oc3c(C)c(O)c4c(O)c(c(/C=N/N5CCN(C6CCCC6)CC5)c(O)c4c3C2=O)NC(=O)/C(C)=C\C=C\[C@H](C)[C@H](O)[C@@H](C)[C@@H](O)[C@@H](C)[C@H](OC(C)=O)[C@@H]1C [Rifapentine]
Regrowth: OD600 after dilution into drug-free medium (mean) ([1]; concentration 0.1): 0.215
Regrowth: OD600 after dilution into drug-free medium (mean) ([1]; concentration 0.5): 0.149
Regrowth: OD600 after dilution into drug-free medium (mean) ([1]; concentration 2.5): 0.116
Regrowth: OD600 after dilution into drug-free medium (mean) ([1]; concentration 10): 0.091
EC50 [1, 3]: 41 nM

O=C(O)c1cn(-c2ccc(F)cc2)c2cc(N3CCNCC3)c(F)cc2c1=O [Sarafloxacin]
EC50 [1, 3]: 662 nM

N[C@@H]1CN(c2c(F)cc3c(=O)c(C(=O)O)cn([C@@H]4C[C@@H]4F)c3c2Cl)CC12CC2 [Sitafloxacin]
EC50 ([1]; read-out: EC50): 106 nM

NC1CCN(c2nc3c(cc2F)c(=O)c(C(=O)O)cn3-c2ccc(F)cc2F)C1 (stereo not shown) [Tosufloxacin]
EC50 [1, 3]: 328 nM

Bleomycin
OD600 at 8hr, Mean ([1]; 0.1 μM): 0.622
OD600 at 8hr, Mean ([1]; 0.5 μM): 0.595
OD600 at 8hr, Mean ([1]; 2.5 μM): 0.351
OD600 at 8hr, Mean ([1]; 10 μM): 0.129
EC50 ([1]; read-out: EC50): 2560 nM
induction of the SOS response in growing UPEC cultures ([2]; 20 μM): induced the SOS response

Plicamycin
Regrowth, OD600 at 6h or 8h after dilution into drug-free medium (average) ([1]; drug concentration 0.1): 0.578
Regrowth, OD600 at 6h or 8h after dilution into drug-free medium (average) ([1]; drug concentration 0.5): 0.347
Regrowth, OD600 at 6h or 8h after dilution into drug-free medium (average) ([1]; drug concentration 2.5): 0.205
Regrowth, OD600 at 6h or 8h after dilution into drug-free medium (average) ([1]; drug concentration 10): 0.143
EC50 [1]: 359 nM
induction of the SOS response in growing UPEC cultures ([2]; 20 μM): not detected
growth inhibition of growing UPEC ([2]; 20 μM, LPM pH 5.5, Fig. S7C,D): only a slight growth inhibition
